Active and inactive are the calls of the source. No rule for the calls is given here.

The subject of the test is Saccharomyces cerevisiae lifespan extension, no nicotinamide. Put plainly: yeast lifespan extension without nicotinamide, confirmation, yeast lifespan extension project, S. cerevisiae (AID 812).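 Also: growth read as optical density after 42 hours of incubation at 30C.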

A word on the EC50: it is the midpoint of the concentration-response curve. Take `Cc1cccc(N2C(=O)C(Oc3ccc(Cl)cc3Cl)C2C=O)c1C` (stereo not drawn): the EC50 is > 40 µM (inactive).

Turning to `CCCCC(=O)Nc1ccc(C(=O)NNC(=S)NC(=O)c2cccs2)cc1`, the EC50 is > 40 µM (inactive).

As to `CCc1oc2ccccc2c1C(=O)CCN1CCCCC1`, the EC50 is > 40 µM (inactive).

With `Cc1ncc(C23CC4CC(CC(C4)C2)C3)[nH]1`, the EC50 was > 40 µM (inactive).

For `O=C1c2ccccc2-c2onc3c(Oc4ccccc4)cc(O)c1c23`, the EC50 is > 40 µM (inactive).

Regarding `Cc1ccc(N2NC(=O)/C(=C\c3cc4c(cc3[N+](=O)[O-])OCO4)C2=O)cc1C`, the EC50 is > 40 µM (inactive).

In the case of `CC[n+]1ccc(C[n+]2ccccc2)c2ccccc21`, the EC50 is > 40 µM (inactive).

For the compound `CC(=O)Nc1ccc(C(=O)CSc2nnc(-c3ccc(O)cc3)n2CC2CCCO2)cc1` (stereo not drawn), the EC50 was > 40 µM (inactive).

As to `CC(C)(C)C(=O)Cn1c(=N)n(Cc2ccccc2)c2ccccc21`, the EC50 was > 40 µM (inactive).

Take `C/C(=N\NC(=O)c1ccccc1O)C1C(=O)c2ccccc2C1=O`: the EC50 was > 40 µM (inactive).

`Cc1ccc(N(C)C(=O)Oc2ccc(C(=O)c3ccc(Cl)cc3)cc2)cc1`: the EC50 is > 40 µM (inactive).

`O=S(=O)(CCSc1ccccn1)c1nc2ccccc2s1`: the EC50 is > 40 µM (inactive).

For the compound `COc1ccc(/C=C(/C(=O)c2ccc(Cl)cc2Cl)n2cncn2)cc1`, the EC50 was > 40 µM (inactive).

For the compound `CCOC(=O)CSC1=NC(=O)/C(=C/c2ccc(OC)cc2)S1`, the EC50 is > 40 µM (inactive).

Take `O=CN(/C=C1\Sc2ccccc2C1=O)Cc1ccccc1`: the EC50 is > 40 µM (inactive).

As for `O=C(CCN1CCCCCC1)Nc1ccc(F)cc1`, the EC50 was > 40 µM (inactive).

For `CC(=O)Oc1oc(-c2ccccc2)nc1C=Nc1ccccc1`, the EC50 was > 40 µM (inactive).

Turning to `CC(C)C(C(=O)O)N1C(=O)/C(=C/c2cccn2C)SC1=S` (stereo not drawn), the EC50 is > 40 µM (inactive).

On to `COc1ccc(C(=O)Nc2ccc(OCc3ccccc3)cc2)cc1[N+](=O)[O-]`, for which the EC50 is > 40 µM (inactive).

In the case of `CC1(C)Oc2ccccc2OC1(O)c1ccc2ccccc2n1` (stereo not drawn), the EC50 was > 40 µM (inactive).

For the compound `CCOC(=O)c1nnn(-c2nonc2N)c1CN1CCc2ccccc2C1`, the EC50 was > 40 µM (inactive).

In the case of `CCC(C)OC(=O)C1C(c2ccccc2)C(C(=O)O)C1c1ccccc1` (stereo not drawn), the EC50 is > 40 µM (inactive).

For the compound `CC(c1ccccc1)N1CCn2c(nc3cc(NC(=O)c4cccs4)ccc32)C1` (stereo not drawn), the EC50 was > 40 µM (inactive).
